Like-named read-outs stand apart in the source and are kept apart here.
Experiments:
[1] = pharmacokinetics of GA metabolites in EHBRs orally treated with GA; assay type: in vivo, Eisai hyperbilirubinuria rats (EHBRs); conditions: Eisai hyperbilirubinuria rat (EHBR), rat, plasma, 200 mg/kg, GA 0.20 g/kg oral, read-out: plasma concentration 12 h after oral administration of GA
Protocol: Pharmacokinetic Experiments of GA Metabolites in EHBRs Orally Treated With GA
Male and female EHBRs (9 week-old) were anaesthetized by an intraperitoneal injection of urethane (1 g/kg) and their jugular veins were exposed. GA suspended in 0.5% carboxymethylcellulose was then administered orally (200 mg/kg) to the unconscious rats, and blood samples were collected from the jugular vein while urine samples were collected using a metabolic cage at appropriate times over a 12 h period.
LC-MS/MS Analysis for GA Metabolites
Briefly, after diluting serum and urine samples with water to obtain suitable concentrations, they were digested with subtilisin (0.91 U/ml), followed by the addition of astragaloside IV (used as an internal standard; Fujifilm Wako Pure Chemicals, Osaka, Japan), and deproteinized using 80% ethanol. […] The transitions (precursor to daughter) monitored and retention times were as follows: ESI(+), 743.4 to 567.5 m/z (35 and 25 V for cone voltage and collision energy, respectively) for compound 1 (8.1 min); ESI(–), 565.5 to 96.5 m/z (80 and 60 V) for 2 (9.6 min); ESI(–), 549.5 to 96.5 m/z (80 and 60 V) for 3 (15.4 min); ESI(+), 727.3 to 551.2 m/z (30 and 25 V) for 4 (11.3 min); ESI(+), 647.6 to 453.6 m/z (40 and 20 V) for 3MGA (15.0 min); ESI(+), 471.3 to 91.0 m/z (40 and 20 V) for GA (13.4 min); ESI(+), 823.5 to 453.6 m/z (30 and 20 V) for GL (18.4 min); and ESI(+), 785.4 to 143.0 m/z (30 and 20 V) for astragaloside IV (3.0 min). Linear regressions over the concentration range of 2 nM to 2 µM for each compound were examined using the peak-area ratio of the compounds to their internal standards and the least-squares method (r ^ 2 > 0.98). The detection limits for 1, GL, and GA were 6.4 nM, and those for 2, 3, and 4, and 3MGA were 3.2 nM.
FIGURE 5 Pharmacokinetic profiles of glycyrrhizin (GL) metabolites in female (A–C) and male (D–F) Eisai hyperbilirubinuria rats (EHBRs). […] Data of GA, 3MGA, 1, 2, and 3 in (A) and GA, 3MGA, 2, and 3 for (D) are relatively small; their magnified graphs are shown in (B,E), respectively. Concentrations of GA metabolites were measured using liquid chromatography-tandem mass spectrometry (LC-MS/MS), and data are means ± standard error (S.E: n = 4).

[2] = relationship of serum concentration of compound 4 with laboratory markers and symptoms of pseudohyperaldosteronism; assay type: in vivo, human
Text: Evaluation of the Pathological Relationship Between Compound 4 and Pseudohyperaldosteronism Pathology
We recorded the following available clinical symptoms and laboratory data when blood samples were drawing from patients: age, sex, complications, concomitant medications, daily liquorice dose, duration of administration of liquorice-containing herbal preparations, symptoms (blood pressure and pedal oedema), and laboratory test values, namely: total protein, albumin, total and direct bilirubin, aspartate amino transferase, alanine amino transferase, blood urea nitrogen, creatinine, sodium, potassium, chloride, calcium, magnesium, prothrombin time, plasma renin activity or activated renin concentration, and plasma aldosterone concentration (blood test data), and urine concentrations of potassium and creatinine (urinalysis data). Samples were processed according to the individual institutional protocols, and all data were measured at each institution.
FIGURE 3 Concentration of 4 in human serum samples and three or laboratory markers (A) Strong positive correlation was identified between serum concentrations of 3 and 4.

[3] = system: rat kidney slices; test: uptake into rat kidney slices; assay type: in vitro ADME, Sprague-Dawley (SD) rats; conditions: SD rat kidney slices incubated with pooled EHBR plasma for 2 h; p < 0.01
Text: Uptake of Compound 4 by Rat Kidney Slices and Cells Expressing OAT1 and 3
For the uptake study of 4 into rat kidney slices, we used the samples obtained in our previous study ([Ishiuchi et al., 2019]). For the uptake study of 4 into the cells transiently expressing OAT1 and OAT3, we used the same protocol as in our previous study ([Makino et al., 2012]). cDNAs encoding human OAT1 and OAT3 inserted into pGH19 were generously supplied by Prof. Mitsuru Sugawara (Hokkaido University, Sapporo, Japan), and then subcloned into a pCI-neo mammalian expression vector (Promega, Madison, WI, United States). We used the same pooled plasma of male EHBRs orally treated with GA for 12 h used in our previous study ([Ishiuchi et al., 2019]).
FIGURE 2 Inhibitory effects of compound 4 on type-2 11β-hydroxysteroid dehydrogenase (11β-HSD2) using rat kidney microsome (A), and the uptake of 4 into rat kidney slices (B) or into HEK293 cells transfected with organic anion transporter (OAT) 1 (C) or OAT3 (D). […] Then, the amount of [^3H] cortisol was measured. […] Concentrations of 4 in kidney slice homogenates were measured using liquid chromatography-tandem mass spectrometry (LC-MS/MS). **p < 0.01 vs 4°C group using Student’s t-test (C) Male EHBRs were orally treated with GA (200 mg/kg) and their plasma samples were collected […] after treatment. […] Then, concentrations of 4 in cells were measured using LC-MS/MS. […]

CC1(C)[C@@H](OS(=O)(=O)O)CC[C@]2(C)[C@H]3C(=O)C=C4[C@@H]5C[C@@](C)(C(=O)O[C@@H]6O[C@H](C(=O)O)[C@@H](O)[C@H](O)[C@H]6O)CC[C@]5(C)CC[C@@]4(C)[C@]3(C)CC[C@@H]12 [Compound 4, 18β-glycyrrhetyl-3-O-sulfate-30-O-glucuronide]
concentration at 12 h ([1]; female EHBRs): 208 µM | concentration at 12 h ([1]; male EHBRs): 237 µM | relationship with clinical symptoms ([2]; blood pressure, oedema): not significant | correlation of serum concentration with plasma renin activity and aldosterone concentration ([2]; human serum samples): negative correlations | serum potassium concentration in participants with higher serum concentrations ([2]; human serum samples): tended to be lower | uptake by kidney slices, 37°C vs 4°C [3]: significantly higher at 37 °C
